Source: patent US6844336B2, “4-fluoroalkyl-2h-benzopyrans with anti-estogenic activity” (Schering AG, priority 2000, dated 2005)

Tested on: density of the trabecular bone in the proximal tibia of ovariectomized rats
Experiment: Bone studies in ovariectomized rats (bone density of proximal tibia by pQCT)
Parameters: species or system rat
Conditions: three-month-old ovariectomized female rats, once daily for 28 days, 0.1 mg/kg/animal/day p.o., pQCT ex vivo
Experimental: Three-month-old female rats are ovariectomized and treated once daily with the test compound immediately after the operation for 28 days. The administration is carried out subcutaneously in arachis oil/ethanol or it is carried out perorally. The animals are sacrificed on the day after the last administration, and tibiae as well as uteri are removed. The uteri are weighed, fixed and worked up for histological studies. The determination of the bone density is carried out ex vivo on prepared long bones using pQCT (quantitative computer tomography). The measurements are performed at a distance of 4-6 mm from the ball of the joint of the proximal tibia.
By the ovariectomy, the density of the trabecular bone in the measured area is reduced by about 400 mg of Ca^2+/cm^3 to about 300 mg of Ca^2+/cm^3. By the treatment with a compound of general formula I according to this invention (dosage of 0.1 mg/kg/animal/day p.o.), the degradation of the bone density in the proximal tibia is prevented or inhibited.

Question: How did the “bone protection in comparison to the control that was subjected to a sham operation” value turn out when `Oc1ccc(C2=C(C(F)(F)F)c3ccc(O)cc3OC2c2ccc(OCCN3CCCCC3)cc2)cc1` (single isomer, unassigned; (+)) [Example 1, (+)-7-Hydroxy-3-(4-hydroxyphenyl)-2-[4-(2-piperidin-1-ylethoxy)-penyl]-4(trifluoromethyl)-2H-1-benzopyran] was run?
Answer: Its value is 73%.
